Experimental data taken from ChEMBL document CHEMBL2177080, “N-[5-(5-fluoropyridin-3-yl)-1H-pyrazol-3-yl]-4-piperidin-1-ylbutyramide (SEN78702, WYE-308775): a medicinal chemistry effort toward an α7 nicotinic acetylcholine receptor agonist preclinical candidate” (J Med Chem, 2012).
One block for each compound: values may come before it. Calls of active or inactive are those of the source. The rule behind the calls is not given here.

Experiments:
Plasma = test: Stability in rat plasma assessed as compound remaining incubated for 3 hrs; assay type: ADME, cell-free
[1] = target: T1, Neuronal acetylcholine receptor subunit alpha-7 (Rattus norvegicus, UniProt Q05941); test: Agonist activity at rat alpha7 nAchR expressed in rat GH4C1 cells assessed as stimulation of calcium flux by FLIPR
T1 sequence (Q05941 whole entry): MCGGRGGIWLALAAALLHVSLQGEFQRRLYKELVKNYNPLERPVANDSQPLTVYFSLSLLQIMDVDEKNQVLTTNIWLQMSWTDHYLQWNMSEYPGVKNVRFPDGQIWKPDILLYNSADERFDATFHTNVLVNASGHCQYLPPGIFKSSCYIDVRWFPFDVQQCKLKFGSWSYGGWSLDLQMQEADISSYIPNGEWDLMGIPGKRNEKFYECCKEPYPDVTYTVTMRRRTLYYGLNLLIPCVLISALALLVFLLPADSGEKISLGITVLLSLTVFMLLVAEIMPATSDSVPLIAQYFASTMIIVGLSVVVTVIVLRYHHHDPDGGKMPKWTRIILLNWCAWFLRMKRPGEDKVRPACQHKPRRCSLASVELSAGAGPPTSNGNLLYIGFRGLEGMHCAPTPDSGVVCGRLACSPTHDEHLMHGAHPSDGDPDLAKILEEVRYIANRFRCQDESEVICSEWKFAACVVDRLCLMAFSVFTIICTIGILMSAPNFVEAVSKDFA

[2] = target: Acetylcholine receptor; alpha1/beta1/delta/gamma (Homo sapiens, UniProt P02708+P07510+P11230+Q07001); test: Agonist activity at alpha1beta1gammadelta nAChR nAchR in human TE671 cells assessed as stimulation of calcium flux by FLIPR; assay type: functional, cell-based; details: for pIC50: TE-671
Chain of Acetylcholine receptor; alpha1/beta1/delta/gamma (P02708 whole entry): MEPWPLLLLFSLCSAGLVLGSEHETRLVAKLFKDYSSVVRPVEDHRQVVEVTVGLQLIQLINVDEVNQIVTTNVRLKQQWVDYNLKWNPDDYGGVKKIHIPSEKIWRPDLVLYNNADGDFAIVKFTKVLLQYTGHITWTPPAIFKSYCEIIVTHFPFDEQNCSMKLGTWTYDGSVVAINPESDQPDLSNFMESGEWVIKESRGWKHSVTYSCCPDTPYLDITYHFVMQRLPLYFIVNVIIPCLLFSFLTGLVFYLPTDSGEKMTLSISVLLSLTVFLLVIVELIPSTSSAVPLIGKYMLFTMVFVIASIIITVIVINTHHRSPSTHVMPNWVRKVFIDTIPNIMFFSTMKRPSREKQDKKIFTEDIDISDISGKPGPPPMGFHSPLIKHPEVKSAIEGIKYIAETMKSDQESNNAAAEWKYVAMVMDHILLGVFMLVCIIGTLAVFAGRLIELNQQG
Chain of Acetylcholine receptor; alpha1/beta1/delta/gamma (P07510 whole entry): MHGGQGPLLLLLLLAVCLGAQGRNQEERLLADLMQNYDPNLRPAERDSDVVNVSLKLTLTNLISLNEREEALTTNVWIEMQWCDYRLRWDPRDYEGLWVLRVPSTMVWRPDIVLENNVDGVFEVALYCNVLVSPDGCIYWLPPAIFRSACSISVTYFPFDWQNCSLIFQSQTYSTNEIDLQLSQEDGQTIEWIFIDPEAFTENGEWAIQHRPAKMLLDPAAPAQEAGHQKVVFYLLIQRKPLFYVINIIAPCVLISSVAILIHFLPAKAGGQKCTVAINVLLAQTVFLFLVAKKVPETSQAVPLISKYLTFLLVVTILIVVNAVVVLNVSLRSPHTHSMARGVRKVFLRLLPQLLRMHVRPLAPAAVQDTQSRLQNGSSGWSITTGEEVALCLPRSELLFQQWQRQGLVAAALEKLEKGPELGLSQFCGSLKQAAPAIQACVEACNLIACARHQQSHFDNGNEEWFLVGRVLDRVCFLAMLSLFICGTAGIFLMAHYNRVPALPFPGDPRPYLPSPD
Chain of Acetylcholine receptor; alpha1/beta1/delta/gamma (P11230 whole entry): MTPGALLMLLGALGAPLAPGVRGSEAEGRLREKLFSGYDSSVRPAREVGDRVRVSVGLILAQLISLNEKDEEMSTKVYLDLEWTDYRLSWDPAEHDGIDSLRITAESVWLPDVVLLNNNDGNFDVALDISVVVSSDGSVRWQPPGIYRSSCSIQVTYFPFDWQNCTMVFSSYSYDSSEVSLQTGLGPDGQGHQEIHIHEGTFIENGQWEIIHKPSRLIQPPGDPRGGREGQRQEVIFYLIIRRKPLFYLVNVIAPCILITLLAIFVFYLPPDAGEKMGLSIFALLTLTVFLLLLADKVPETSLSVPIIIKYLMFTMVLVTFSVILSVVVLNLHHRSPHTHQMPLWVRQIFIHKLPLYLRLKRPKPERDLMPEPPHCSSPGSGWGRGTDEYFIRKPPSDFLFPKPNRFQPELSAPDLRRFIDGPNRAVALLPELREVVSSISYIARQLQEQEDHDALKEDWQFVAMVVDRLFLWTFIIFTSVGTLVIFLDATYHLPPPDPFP
Chain of Acetylcholine receptor; alpha1/beta1/delta/gamma (Q07001 whole entry): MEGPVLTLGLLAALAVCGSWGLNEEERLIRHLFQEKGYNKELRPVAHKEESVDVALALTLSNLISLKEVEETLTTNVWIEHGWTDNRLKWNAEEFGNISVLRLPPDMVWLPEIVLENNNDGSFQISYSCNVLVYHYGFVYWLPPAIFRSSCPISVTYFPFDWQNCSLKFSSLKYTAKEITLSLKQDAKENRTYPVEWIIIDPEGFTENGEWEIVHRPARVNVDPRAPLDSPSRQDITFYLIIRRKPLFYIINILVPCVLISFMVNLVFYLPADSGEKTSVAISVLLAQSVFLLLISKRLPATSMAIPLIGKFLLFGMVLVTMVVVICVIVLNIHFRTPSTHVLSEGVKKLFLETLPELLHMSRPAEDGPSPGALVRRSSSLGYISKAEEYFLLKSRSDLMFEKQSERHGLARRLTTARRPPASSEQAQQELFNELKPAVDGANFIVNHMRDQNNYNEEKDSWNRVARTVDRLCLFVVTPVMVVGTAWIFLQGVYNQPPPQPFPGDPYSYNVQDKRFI

[3] = target: Neuronal acetylcholine receptor subunit alpha-3 (Homo sapiens, UniProt P32297); test: Agonist activity at alpha3 nAchR in human SH-SY5Y cells assessed as stimulation of calcium flux by FLIPR; assay type: functional, cell-based
Chain of Neuronal acetylcholine receptor subunit alpha-3 (P32297 whole entry): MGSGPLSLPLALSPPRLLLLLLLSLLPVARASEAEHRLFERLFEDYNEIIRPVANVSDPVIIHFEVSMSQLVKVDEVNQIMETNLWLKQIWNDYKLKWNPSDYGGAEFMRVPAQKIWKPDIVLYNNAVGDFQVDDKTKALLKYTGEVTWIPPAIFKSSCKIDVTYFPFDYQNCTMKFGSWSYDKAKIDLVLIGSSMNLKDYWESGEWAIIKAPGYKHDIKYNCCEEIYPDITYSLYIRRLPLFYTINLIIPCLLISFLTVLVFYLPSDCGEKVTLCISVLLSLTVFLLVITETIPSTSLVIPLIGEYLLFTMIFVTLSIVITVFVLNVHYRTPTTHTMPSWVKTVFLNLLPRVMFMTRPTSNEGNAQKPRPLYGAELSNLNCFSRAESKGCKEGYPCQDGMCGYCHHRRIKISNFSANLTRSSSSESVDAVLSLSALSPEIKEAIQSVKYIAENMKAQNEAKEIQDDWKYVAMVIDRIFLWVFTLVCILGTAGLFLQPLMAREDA

[4] = target: T2, 5-hydroxytryptamine receptor 3A (Homo sapiens) (UniProt P46098); test: (§1) Agonist activity at human 5HT3R expressed in HEK293 cells assessed as stimulation of calcium flux by FLIPR; assay type: functional, cell-based
T2 sequence (whole entry): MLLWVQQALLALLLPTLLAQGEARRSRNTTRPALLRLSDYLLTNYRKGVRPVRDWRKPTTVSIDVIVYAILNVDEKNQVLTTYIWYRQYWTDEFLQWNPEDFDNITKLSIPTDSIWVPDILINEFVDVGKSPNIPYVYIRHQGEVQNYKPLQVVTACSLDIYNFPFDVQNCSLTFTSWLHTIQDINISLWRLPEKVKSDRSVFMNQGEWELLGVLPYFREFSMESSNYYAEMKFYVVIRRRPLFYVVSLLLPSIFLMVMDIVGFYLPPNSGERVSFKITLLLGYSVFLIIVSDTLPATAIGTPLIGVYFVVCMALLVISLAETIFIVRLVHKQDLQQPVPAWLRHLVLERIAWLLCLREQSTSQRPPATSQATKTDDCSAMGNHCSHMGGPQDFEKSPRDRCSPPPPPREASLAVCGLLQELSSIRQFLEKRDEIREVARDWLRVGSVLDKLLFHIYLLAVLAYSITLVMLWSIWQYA

[5] = target: T3, 5-hydroxytryptamine receptor 3A (Homo sapiens, UniProt P46098); test: as §1; assay type: functional, cell-based
T3 sequence (P46098 whole entry): T2 sequence (whole entry)

[6] = target: Neuronal acetylcholine receptor subunit alpha-7 (Rattus norvegicus) (UniProt Q05941); test: Agonist activity at rat alpha7 nAchR expressed in rat GH4C1 cells assessed as stimulation of calcium flux by FLIPR relative to nicotine; assay type: functional, cell-based; details: GH4-C1
Chain of Neuronal acetylcholine receptor subunit alpha-7 (Rattus norvegicus) (Q05941 whole entry): as the sequence (Q05941 whole entry) above

[7] = target: T1, Neuronal acetylcholine receptor subunit alpha-7; test: Agonist activity at rat alpha7 nAchR expressed in rat GH4C1 cells by patch clamp assay; assay type: functional, cell-based, GH4-C1
[8] = Cmax in Wistar rat brain 3 mg/kg, po; assay type: ADME, organism-based; set-up: dose 3 mg/kg, route oral
[9] = Toxicity in rat during 7-day tolerability study; assay type: organism-based; details: in vivo
Rattus norvegicus [10] = test: Inhibition of MK801-Induced prepulse inhibition deficits in Long Evans rat at 1 to 10 mg/kg, po administered 60 mins before MK-801 challenge; assay type: functional, organism-based
Rattus norvegicus [11] = test: Induction of memory enhancement Wistar rat administered orally 30 mins before acquisition trial by novel object recognition test; assay type: functional; details: po, read-out: MED
[12] = target: T4, Alpha-2C adrenergic receptor (Homo sapiens) (UniProt P18825); test: Inhibition of alpha2c adrenergic receptor at 10 uM
T4 sequence (whole entry): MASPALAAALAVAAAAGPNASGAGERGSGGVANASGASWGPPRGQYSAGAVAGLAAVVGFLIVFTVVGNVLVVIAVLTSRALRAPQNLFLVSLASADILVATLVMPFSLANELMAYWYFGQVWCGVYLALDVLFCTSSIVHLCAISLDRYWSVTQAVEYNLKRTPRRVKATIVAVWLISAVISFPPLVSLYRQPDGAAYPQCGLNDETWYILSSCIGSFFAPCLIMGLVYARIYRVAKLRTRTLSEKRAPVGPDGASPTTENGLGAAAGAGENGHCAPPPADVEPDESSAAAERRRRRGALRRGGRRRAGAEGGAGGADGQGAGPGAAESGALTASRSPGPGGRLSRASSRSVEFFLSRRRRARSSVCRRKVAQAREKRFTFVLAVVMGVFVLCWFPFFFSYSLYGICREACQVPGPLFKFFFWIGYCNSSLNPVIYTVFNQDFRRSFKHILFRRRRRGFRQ

[13] = Clearance in Wistar rat 2 mg/kg, iv; assay type: ADME, organism-based; set-up: dose 2 mg/kg, route intravenous; details: in vivo
[14] = target: T1, Neuronal acetylcholine receptor subunit alpha-7; test: Displacement of [3H]-epibatidine from rat alpha7 nAchR expressed in rat GH4C1 cell membranes; set-up: species or system GH4-C1, Membrane
[15] = Tmax in Wistar rat 10 mg/kg, po; assay type: ADME, organism-based; set-up: dose 10 mg/kg, route oral; details: in vivo
[16] = target: T5, Alpha-2B adrenergic receptor (Homo sapiens) (UniProt P18089); test: Inhibition of alpha2b adrenergic receptor at 10 uM
T5 sequence (whole entry): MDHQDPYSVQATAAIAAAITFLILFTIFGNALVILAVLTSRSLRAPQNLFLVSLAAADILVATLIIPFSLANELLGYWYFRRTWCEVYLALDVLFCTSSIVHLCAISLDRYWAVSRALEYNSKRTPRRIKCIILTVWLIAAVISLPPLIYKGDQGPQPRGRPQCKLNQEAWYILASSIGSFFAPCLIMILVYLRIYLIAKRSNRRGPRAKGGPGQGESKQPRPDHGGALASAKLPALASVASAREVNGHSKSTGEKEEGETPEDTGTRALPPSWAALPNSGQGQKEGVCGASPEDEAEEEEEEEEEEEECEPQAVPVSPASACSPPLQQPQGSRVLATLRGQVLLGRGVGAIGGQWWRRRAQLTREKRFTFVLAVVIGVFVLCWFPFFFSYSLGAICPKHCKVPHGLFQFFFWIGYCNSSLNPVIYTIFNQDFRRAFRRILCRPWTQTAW

[17] = target: Neuronal acetylcholine receptor subunit alpha-7 (Homo sapiens, UniProt P36544); test: Agonist activity at human alpha7 nAchR by patch clamp assay; assay type: functional
Chain of Neuronal acetylcholine receptor subunit alpha-7 (Homo sapiens, UniProt P36544) (P36544 whole entry): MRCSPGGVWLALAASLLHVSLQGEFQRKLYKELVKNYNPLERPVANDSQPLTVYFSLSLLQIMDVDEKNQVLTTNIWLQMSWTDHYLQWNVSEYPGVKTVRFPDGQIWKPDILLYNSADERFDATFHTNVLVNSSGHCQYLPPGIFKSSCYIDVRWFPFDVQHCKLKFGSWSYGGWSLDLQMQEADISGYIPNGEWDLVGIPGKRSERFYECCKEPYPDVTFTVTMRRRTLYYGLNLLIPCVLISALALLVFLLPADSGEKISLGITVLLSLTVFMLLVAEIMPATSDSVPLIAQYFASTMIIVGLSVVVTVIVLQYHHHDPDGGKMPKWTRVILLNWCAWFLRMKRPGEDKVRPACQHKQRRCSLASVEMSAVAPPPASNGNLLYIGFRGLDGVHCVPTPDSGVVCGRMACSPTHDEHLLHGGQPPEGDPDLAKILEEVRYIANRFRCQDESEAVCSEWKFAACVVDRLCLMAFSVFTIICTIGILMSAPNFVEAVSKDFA

[18] = target: Histamine H3 receptor (Homo sapiens) (UniProt Q9Y5N1); test: Inhibition of histamine H3 receptor at 10 uM
[19] = target: T6, Alpha-2A adrenergic receptor (Homo sapiens) (UniProt P08913); test: Inhibition of alpha2a adrenergic receptor at 10 uM
T6 sequence (whole entry): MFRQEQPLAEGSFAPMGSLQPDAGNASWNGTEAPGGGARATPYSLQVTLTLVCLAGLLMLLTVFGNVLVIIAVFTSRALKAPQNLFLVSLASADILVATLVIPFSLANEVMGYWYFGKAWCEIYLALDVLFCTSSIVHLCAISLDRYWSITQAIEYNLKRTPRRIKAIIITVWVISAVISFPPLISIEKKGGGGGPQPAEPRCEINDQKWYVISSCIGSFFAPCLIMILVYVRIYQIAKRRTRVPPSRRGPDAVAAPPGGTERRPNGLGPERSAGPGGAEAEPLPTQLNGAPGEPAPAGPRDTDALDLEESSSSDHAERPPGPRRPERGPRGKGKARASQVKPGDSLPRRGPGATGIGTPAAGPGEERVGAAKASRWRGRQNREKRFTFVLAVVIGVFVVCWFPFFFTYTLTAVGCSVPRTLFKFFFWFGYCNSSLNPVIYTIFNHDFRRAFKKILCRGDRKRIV

Rattus norvegicus [20] = test: Inhibition of MK801-Induced prepulse inhibition deficits in Long Evans rat administered orally 60 mins before MK-801 challenge; assay type: functional; details: po, read-out: MED
Rattus norvegicus [21] = test: Induction of memory enhancement Wistar rat at 1 to 10 mg/kg, po administered 30 mins before acquisition trial by novel object recognition test; assay type: functional, organism-based
Rattus norvegicus [22] = test: Induction of memory enhancement Wistar rat at 1 to 10 mg/kg, po administered 30 mins before acquisition trial pre-treated with 3 mg/kg alpha7 selective antagonist methyllycaconitin by novel object recognition test; assay type: functional, organism-based
[23] = target: Voltage-gated inwardly rectifying potassium channel KCNH2 (Homo sapiens, UniProt Q12809); test: Inhibition of human ERG expressed in CHO cells; assay type: cell-based
Chain of Voltage-gated inwardly rectifying potassium channel KCNH2 (Q12809 whole entry): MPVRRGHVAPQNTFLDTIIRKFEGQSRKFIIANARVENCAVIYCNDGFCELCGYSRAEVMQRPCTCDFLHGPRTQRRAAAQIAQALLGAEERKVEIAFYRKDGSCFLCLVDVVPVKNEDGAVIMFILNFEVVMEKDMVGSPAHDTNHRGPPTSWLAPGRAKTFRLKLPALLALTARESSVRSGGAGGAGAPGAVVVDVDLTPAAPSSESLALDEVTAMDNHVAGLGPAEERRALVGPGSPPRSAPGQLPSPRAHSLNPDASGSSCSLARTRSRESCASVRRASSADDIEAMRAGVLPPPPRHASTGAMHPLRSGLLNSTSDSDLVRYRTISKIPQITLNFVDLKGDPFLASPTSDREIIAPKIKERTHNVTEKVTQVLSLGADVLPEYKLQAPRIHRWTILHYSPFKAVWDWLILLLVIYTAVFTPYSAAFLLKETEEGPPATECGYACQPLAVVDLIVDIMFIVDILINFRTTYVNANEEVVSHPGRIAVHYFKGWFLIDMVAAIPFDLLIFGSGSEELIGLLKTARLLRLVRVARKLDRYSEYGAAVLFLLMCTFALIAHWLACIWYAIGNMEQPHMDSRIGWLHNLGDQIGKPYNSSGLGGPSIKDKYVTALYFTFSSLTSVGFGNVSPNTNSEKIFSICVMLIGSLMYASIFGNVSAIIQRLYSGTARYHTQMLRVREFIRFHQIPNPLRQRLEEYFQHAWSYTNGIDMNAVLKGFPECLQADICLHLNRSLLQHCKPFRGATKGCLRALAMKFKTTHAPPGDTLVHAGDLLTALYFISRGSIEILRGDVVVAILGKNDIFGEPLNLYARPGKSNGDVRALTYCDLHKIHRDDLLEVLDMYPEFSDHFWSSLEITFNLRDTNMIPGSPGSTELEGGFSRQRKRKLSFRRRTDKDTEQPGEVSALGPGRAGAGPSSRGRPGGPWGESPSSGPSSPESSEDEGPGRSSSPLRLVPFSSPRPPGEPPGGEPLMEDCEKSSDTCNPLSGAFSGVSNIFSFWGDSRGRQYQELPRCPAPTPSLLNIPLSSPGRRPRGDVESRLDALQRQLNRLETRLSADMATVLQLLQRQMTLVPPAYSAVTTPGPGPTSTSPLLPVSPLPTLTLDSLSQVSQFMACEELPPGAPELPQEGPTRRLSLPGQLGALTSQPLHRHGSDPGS

Structure (SMILES): CC(C)(C)c1cc(NC(=O)CCCN2CCCCC2)[nH]n1
pIC50 [4]: inactive | EC50 [1]: > 31600 nM | pIC50 [2]: inactive | pIC50 [3]: inactive

Structure (SMILES): COc1ccc(-c2cc(NC(=O)CCCN3CCCN(C(C)=O)CC3)[nH]n2)cc1
Stability (Plasma): Stable | Emax [6]: > 90% | EC50 [1]: 912 nM

Structure (SMILES): COc1ccc(-c2cc(NC(=O)CCCN3CCCCC3)[nH]n2)cc1
Stability (Plasma): Stable | IC50 [5]: > 31600 nM | EC50 [1]: 417 nM | IC50 [2]: > 31600 nM | IC50 [3]: > 31600 nM

Structure (SMILES): COc1ccc(-c2cc(NC(=O)CCN3CCCN(C(C)=O)CC3)[nH]n2)cc1
Emax [6]: > 90% | EC50 [1]: 8510 nM

Structure (SMILES): O=C(CCCN1CCCCC1)Nc1cc(-c2cncc(F)c2)n[nH]1
EC50 [7]: 10700 nM | Cmax [8]: 55 ng/g | Stability (Plasma): Stable | MTD at 7 day [9]: ≤ 100 mg/kg/day | inhibition (Rattus norvegicus [10]): Active | minimal effective dose (Rattus norvegicus [11]): 3 mg/kg | inhibition [12]: 57% | EC50 [1]: 740 nM | clearance [13]: 23 mL/min/kg | Ki [14]: 390 nM | Tmax [15]: 1 h | inhibition [16]: 64% | EC50 [17]: 10000 nM | inhibition [18]: 62% | inhibition [19]: 73% | minimal effective dose (Rattus norvegicus [20]): 3 mg/kg | Activity (Rattus norvegicus [21]): Active | Activity (Rattus norvegicus [22]): inactive

Structure (SMILES): COc1ccc(-c2cc(NC(=O)CCCCCN3CCCN(C(C)=O)CC3)[nH]n2)cc1
Emax [6]: > 90%

Further compounds by falling EC50 [1], results first:

EC50 [1]: 6610 nM
Structure (SMILES): COc1ccc(-c2cc(NC(=O)CCCN3CCOCC3)[nH]n2)cc1

EC50 [1]: 1200 nM
Structure (SMILES): COc1ccc(-c2cc(NC(=O)CCCCCN3CCCN(C(C)=O)CC3)n[nH]2)cc1

EC50 [1]: 1170 nM
Structure (SMILES): COc1ccc(-c2cc(NC(=O)CCCN3CCCOCC3)[nH]n2)cc1

IC50 [5]: > 31600 nM | EC50 [1]: 912 nM | IC50 [2]: > 31600 nM | IC50 [3]: 7940 nM
Structure (SMILES): COc1ccc(-c2cc(NC(=O)CCCN3CCCCCC3)[nH]n2)cc1

Stability (Plasma): Stable | EC50 [1]: 832 nM | pIC50 [2]: Active | pIC50 [3]: Active
Structure (SMILES): O=C(CCCN1CCCCC1)Nc1cc(-c2cccc(F)c2)n[nH]1
IC50 [23]: 1290 nM

Stability (Plasma): Stable | EC50 [1]: 468 nM | pIC50 [2]: Active | pIC50 [3]: Active
Structure (SMILES): COc1cccc(-c2cc(NC(=O)CCCN3CCCCC3)[nH]n2)c1
